Measurements from patent publication US11351124B2, “Sustained release of formulations of local anesthetics” (EUPRAXIA PHARMACEUTICALS INC., priority 2015, dated 2022).
In brackets after ≈: the same amount, converted by molar mass. Several values for one entry are separate records, joined by “and”; a condition that tells them apart may be missing. Identical values can stand only once. Values belong to the molecule of their own block, whether it stands above or below them.

Columns and labels:
[1] = Dissolution of ropivacaine crystals in suspension, USP I apparatus; format: physicochemical
Method: Prior to assessing intrinsic dissolution of ropivacaine, the kinetics of dissolution of crystals in suspension was assessed using a USP I apparatus with either large (1 L capacity, filled to 500 mL) or small (150 mL) dissolution baths. The stir speed was 50 rpm in the large vessel method and 100 rpm in the small vessel method and temperature was 37° C. The media was PBS with 0.1% SDS. The commercial ropivacaine was dissolved rapidly with greater than 60% of the material dissolved within 30 minutes. A 17 mg sample dissolving in the large vessel reached a plateau within 4 hours, although only approximately 80% of the ropivacaine added to the experiment was accounted for.
Approximately 100-120% of the compound was accounted for in this assay. […] The Y-intercept values of the regression is representative of the magnitude of the “burst”, which was 25× higher for the commercial sample compared to the recrystallized sample. See also FIG. 1A.

[2] = Solubility of ropivacaine in various aqueous media; format: physicochemical
Method: As used herein, the aminoamide local anesthetic agents are typically in the free base form, which have lower solubility in an aqueous medium than their salt form (e.g., HCl salt). The low solubility (e.g., less than 1 mg/ml) enables a rapid formation of a saturated solution within the PVA coating or shell.

[3] = Intrinsic dissolution of ropivacaine, uncoated vs coated with PVA membrane (FIG. 2); format: physicochemical; conditions: PVA membrane Mn=20-200 kDa, 87% hydrolyzed, 12% citric acid, cured at 125° C. for 6 hours
[4] = Franz cell diffusion of ropivacaine through PVA membranes; format: physicochemical; conditions: for Fold Decrease in D: relative to buffer with no membrane
Method: The diffusion behavior of the encapsulated drug in vivo can be predicted based on diffusion coefficient measured in a Franz cell diffusion system. In particular, diffusion coefficient (D) can be quantified according to Equation 1: [formula] where: • D: Diffusion coefficient (cm^2/s) • L: membrane thickness (cm) • J: flux: (μg×cm^−2×s^−1)=slope (μg/mL/h)×volume (9.8 mL)[…](3600 s/h×A cm^2) • A: surface area of the Franz cell (0.650 cm^2) • ΔC: concentration gradient of ropivacaine (μg/mL or μg/cm^3)=339.98 μg/mL (measured […] fluid concentration)−0 μg/mL (assumed […] concentration) The diffusion of ropivacaine through PVA membranes was measured using a Franz diffusion cell system. The system includes a top donor chamber containing a donor fluid, which is sealed with parafilm during the experiment; and a bottom receptor chamber containing a receptor fluid (9.8 mL of PBS pH 7.3). The donor fluid was prepared in a single batch for use in all diffusion experiments, and consisted of PBS pH 7.3. It was prepared by stirring excess solid ropivacaine in the media for 3 days, and filtering to remove the solids with a 0.22 μm filter. The assayed content was 339.98 μg/m L. The rate of appearance of ropivacaine in the Franz cell receptor fluid (the slope of the concentration versus time plot of the data multiplied by the receptor cell volume, 9.8 mL), and the measured membrane thickness (after hydration), were used to calculate the ropivacaine diffusion coefficient through the membrane, using the formula for Fick's law (Equation 1). The concentration of ropivacaine in the receptor (bottom) chamber was measured at different time points, and the diffusion coefficient was determined from Fick's first law of diffusion. Measured concentrations were converted to total drug transport (μg) by multiplying by the receptor fluid volume (9.8 mL for all experiments). FIGS. 3-5 show the diffusion rate for the first 5 hours for three PVA membranes at various degrees of crosslinking induced by various amounts of citric acid.

postsurgical pain = conditions: in vivo; cited from earlier work
[5] = USP I, PBS with 0.1% SDS, 37° C.
[6] = PVA membrane 87% hydrolysis, Mn 20-220 kDa, 4% citric acid, 125 °C 6 h
[7] = PVA membrane 87% hydrolysis, Mn 20-220 kDa, 8% citric acid, 125 °C 6 h
[8] = PVA membrane 87% hydrolysis, Mn 20-220 kDa, 12% citric acid, 125 °C 6 h
[9] = PVA membrane 87% hydrolysis, Mn 20-220 kDa, 20% citric acid, 125 °C 6 h
[10] = PVA membrane 87% hydrolysis, Mn 20-220 kDa, 30% citric acid, 125 °C 6 h
[11] = PVA membrane 87% hydrolysis, Mn 146-186 kDa, 4% citric acid, 125 °C 6 h
[12] = PVA membrane 87% hydrolysis, Mn 146-186 kDa, 8% citric acid, 125 °C 6 h
[13] = PVA membrane 87% hydrolysis, Mn 146-186 kDa, 12% citric acid, 125 °C 6 h
[14] = PVA membrane >99% hydrolysis, Mn 90 kDa, 8% citric acid, 125 °C 6 h
[15] = PVA membrane >99% hydrolysis, Mn 90 kDa, 12% citric acid, 125 °C 6 h
[16] = PVA membrane >99% hydrolysis, Mn 90 kDa, 20% citric acid, 125 °C 6 h
[17] = PVA membrane >99% hydrolysis, Mn 146-186 kDa, 0% citric acid, 125 °C 6 h
[18] = PVA membrane >99% hydrolysis, Mn 146-186 kDa, 0% citric acid, 129 °C 3 h
[19] = PVA membrane >99% hydrolysis, Mn 146-186 kDa, 0% citric acid, 140 °C 6 h
[20] = PVA membrane >99% hydrolysis, Mn 146-186 kDa, 4% citric acid, 125 °C 6 h
[21] = PVA membrane >99% hydrolysis, Mn 146-186 kDa, 4% citric acid, 140 °C 6 h
[22] = PVA membrane >99% hydrolysis, Mn 146-186 kDa, 8% citric acid, 125 °C 6 h
[23] = PVA membrane >99% hydrolysis, Mn 146-186 kDa, 12% citric acid, 125 °C 6 h

Rate of dissolution slowed as compared to commercial ropivacaine ([1]; FIG. 1A): about 10 times
Compound accounted for in this assay [1, 5]: 100-120%
Material dissolved over the first 6 hours (gradual dissolution) [1, 5]: 60%
Compound: CCCN1CCCC[C@H]1C(=O)Nc1c(C)cccc1C [recrystallized ropivacaine, ropivacaine]

solubility ([2]; PBS + 0.05% SDS, pH 7.4, aqueous with cosolvent or surfactant or cyclodextrin): 254 ± 14 µg/mL
solubility ([2]; PBS + 68 mg/mL BSA, pH 7.4, plasma or biological fluid): 792 ± 111 µg/mL
solubility ([2]; PBS + 0.1% SDS, pH 7.4, aqueous with cosolvent or surfactant or cyclodextrin): 306 ± 18 µg/mL
solubility ([2]; PBS + 0.2% SDS, pH 7.4, aqueous with cosolvent or surfactant or cyclodextrin): 350 ± 12 µg/mL
solubility ([2]; aqueous buffer, PBS (pH 7.4)): 254 ± 13 µg/mL (≈ 926 µM)
Intrinsic dissolution compared with ropivacaine coated with PVA membrane [3]: much more rapid
Assayed content of saturated ropivacaine donor fluid ([4]; PBS pH 7.3, excess solid stirred 3 days, filtered 0.22 μm): 339.98 μg/m L
Diffusion of ropivacaine in PBS (diffusion coefficient) ([4]; PBS, no membrane, D defined in cm^2/s): 4.97×10^−6
D, ropivacaine diffusion coefficient [4, 6]: 1.94E−07 cm^2/s and 2.23E−07 cm^2/s
D, ropivacaine diffusion coefficient [4, 7]: 2.20E−07 cm^2/s and 3.01E−07 cm^2/s
D, ropivacaine diffusion coefficient [4, 8]: 4.30E−07 cm^2/s and 5.43E−07 cm^2/s
D, ropivacaine diffusion coefficient [4, 9]: 6.26E−07 cm^2/s and 3.64E−07 cm^2/s
D, ropivacaine diffusion coefficient [4, 10]: 4.88E−07 cm^2/s and 2.82E−07 cm^2/s
D, ropivacaine diffusion coefficient [4, 11]: 2.32E−07 cm^2/s and 2.64E−07 cm^2/s
D, ropivacaine diffusion coefficient [4, 12]: 2.30E−07 cm^2/s and 2.93E−07 cm^2/s
D, ropivacaine diffusion coefficient [4, 13]: 3.85E−07 cm^2/s and 2.90E−07 cm^2/s
D, ropivacaine diffusion coefficient [4, 14]: 1.68E−07 cm^2/s and 1.99E−07 cm^2/s
D, ropivacaine diffusion coefficient [4, 15]: 3.59E−07 cm^2/s and 3.41E−07 cm^2/s
D, ropivacaine diffusion coefficient [4, 16]: 2.38E−07 cm^2/s and 2.01E−07 cm^2/s
D, ropivacaine diffusion coefficient [4, 17]: 9.09E−08 cm^2/s and 9.21E−08 cm^2/s
D, ropivacaine diffusion coefficient [4, 18]: 1.47E−07 cm^2/s
D, ropivacaine diffusion coefficient [4, 19]: 1.33E−07 cm^2/s and 1.19E−07 cm^2/s
D, ropivacaine diffusion coefficient [4, 20]: 2.40E−07 cm^2/s and 2.15E−07 cm^2/s
D, ropivacaine diffusion coefficient [4, 21]: 1.97E−07 cm^2/s and 1.44E−07 cm^2/s
D, ropivacaine diffusion coefficient [4, 22]: 2.02E−07 cm^2/s and 1.91E−07 cm^2/s
D, ropivacaine diffusion coefficient [4, 23]: 2.41E−07 cm^2/s and 2.18E−07 cm^2/s
Decrease in diffusion coefficient compared to diffusion of ropivacaine in PBS ([4]; PVA membranes 146-186 kDa, >99% hydrolysis, after thermal curing and physical crosslinking): 50 times
Fold Decrease in D [4, 6]: 26 and 22
Fold Decrease in D [4, 7]: 23 and 17
Fold Decrease in D [4, 8]: 12 and 9
Fold Decrease in D [4, 9]: 8 and 14
Fold Decrease in D [4, 10]: 10 and 18
Fold Decrease in D [4, 11]: 21 and 19
Fold Decrease in D [4, 12]: 22 and 17
Fold Decrease in D [4, 13]: 13 and 17
Fold Decrease in D [4, 14]: 30 and 25
Fold Decrease in D [4, 15]: 14 and 15
Fold Decrease in D [4, 16]: 21 and 25
Fold Decrease in D [4, 17]: 55 and 54
Fold Decrease in D [4, 18]: 34
Fold Decrease in D [4, 19]: 37 and 42
Fold Decrease in D [4, 20]: 21 and 23
Fold Decrease in D [4, 21]: 25 and 34
Fold Decrease in D [4, 22]: 25 and 26
Fold Decrease in D [4, 23]: 21 and 23
Compound: CCCN1CCCC[C@H]1C(=O)Nc1c(C)cccc1C [ropivacaine]

Time to reach dissolution plateau ([1]; 17 mg sample, large vessel (500 mL, 50 rpm), PBS with 0.1% SDS, 37° C.): ≤ 4 h
Ropivacaine added to the experiment accounted for ([1]; 17 mg sample, large vessel, at plateau): approximately 80%
Material dissolved within 30 minutes [1, 5]: greater than 60%
Magnitude of the burst (Y-intercept of regression), compared to the recrystallized sample ([1]; small vessel apparatus, burst phase within first 30 minutes): 25 ×
Compound: CCCN1CCCC[C@H]1C(=O)Nc1c(C)cccc1C [commercial ropivacaine, ropivacaine]

Compound: CCCCN1CCCCC1C(=O)Nc1c(C)cccc1C (centres unmarked) [conventional bupivacaine, bupivacaine]
Duration of action (postsurgical pain): ≤ 7 h
